In paper PMC11152041, “Tricarbonyl rhenium(I) complexes with 8-hydroxyquinolines: structural, chemical, antibacterial, and anticancer characteristics” (RSC Advances, 2024):

The compounds below were run on HL-60 cells (assay: MTT cytotoxicity assay). Settings: HL-60, 24 h, MTT; read-out: IC50 ± SD.
Assay type: cell-based, human
Description: (§1) The cytotoxicities for studied compounds were evaluated against leukemia cells (HL-60), as well as ovarian (SKOV-3), prostate (PC-3), and breast (MCF-7) cancer cell lines. The potential selectivity of these compounds towards cancer cells was assessed by determination of their cytotoxicities towards breast non-cancerous cells (MCF-10A). For comparison, cisplatin was added to the cytotoxicity assays.
(§2) Bacterial strains and cell lines were obtained from the American Type Culture Collection (ATCC).[59] […] Antimicrobial activity was tested in Müeller Hinton (MH) II broth (Becton Dickinson). For anticancer activity assay, the following reagents from Merk were used: 3-(4,5-dimethylthiazol-2-yl)-2,5-diphenyltetrazolium bromide (MTT), sodium dodecyl sulfate (SDS) and HCl. The solubilized formazan product was spectrophotometrically quantified in a Power Wave XS (Bio Tek, Winooski, VT, USA) microplate reader. The HL-60 and PC-3 cells were grown in RPMI-1640 medium with stable glutamine (Biowest) supplemented with 10% (v/v) of heat-inactivated fetal bovine serum (FBS, Biowest) and 1% (v/v) of antibiotic–antimycotic solution (Biowest). The SKOV-3 cells were grown in McCoy's 5A medium with L-glutamine (Biowest) supplemented with 10% (v/v) heat-inactivated FBS, and 1% (v/v) antibiotic–antimycotic solution. The MCF-7 cells were grown in Eagle's MEM (Minimal Essential Medium) medium with stable glutamine (Biowest), supplemented with 10% (v/v) heat-inactivated FBS 1% (v/v) MEM non-essential amino acids (Biowest), 1% (v/v) antibiotic–antimycotic solution, and 1 mM sodium pyruvate (Merck). The MCF-10A cells were grown in Ham's F-12K (Kaighn's) Medium with stable glutamine (Gibco) supplemented with 5% (v/v) heat-inactivated FBS, 1% (v/v) MEM non-essential amino acids, 1% (v/v) antibiotic–antimycotic solution, 5 μg mL^−1 insulin, 0.04 μg mL^−1 hydrocortisone (Merck), and 15 ng mL^−1 human Epidermal Growth Factor (hEGF, PeproTech).
(§3) The cells were cultured in 96-well plates and incubated with the tested compound for 24 h and 48 h. All experiments were performed in exponentially growing cultures. The 0.03 M solutions of the compounds in DMSO were appropriately diluted using culture media. The maximal final concentration of DMSO in each well was 0.1%. The cytotoxicity of the compounds was measured by determining cell viability with a colorimetric test based on 3-(4,5-dimethylthiazol-2-yl)-2,5-diphenyltetrazolium bromide (MTT). MTT stock solution was added to each well to a final concentration of 0.5 mg mL^−1 and incubated for 4 h at 37 °C; following formazan crystals were dissolved by the addition of sodium dodecyl sulfate (SDS) solution (10% SDS in 0.001 M HCl). MTT and SDS were added directly to the cell culture. The compound's IC50 values (concentration required to reduce the viability of cells by 50% compared with the control cells) were calculated from the data obtained with the MTT assay.
In the case of Cc1ccc2cccc([O][Re])c2n1.[C-]#[O+].[C-]#[O+].[C-]#[O+].c1c[nH]cn1 [complex 5, [Re(CO)3(MeQ)Him]], the IC50 is reported as 11 ± 2 µM.

Same assay, conditions: HL-60, 48 h, MTT; read-out: IC50 ± SD
Cc1ccc2cccc([O][Re])c2n1.[C-]#[O+].[C-]#[O+].[C-]#[O+].c1c[nH]cn1 [complex 5, [Re(CO)3(MeQ)Him]] gave an IC50 of 4 ± 1 µM.

Each compound was assayed on SKOV-3 cells (assay: MTT cytotoxicity assay). Settings: SKOV-3, 24 h, MTT; read-out: IC50 ± SD.
Assay type: cell-based, human
Description: as §1, §2, §3
Cc1ccc2cccc([O][Re])c2n1.[C-]#[O+].[C-]#[O+].[C-]#[O+].c1c[nH]cn1 [complex 5, [Re(CO)3(MeQ)Him]] showed an IC50 of 31 ± 5 µM.

Same assay, conditions: SKOV-3, 48 h, MTT; read-out: IC50 ± SD
Compound Cc1ccc2cccc([O][Re])c2n1.[C-]#[O+].[C-]#[O+].[C-]#[O+].c1c[nH]cn1 [complex 5, [Re(CO)3(MeQ)Him]] has an IC50 of 26 ± 11 µM.

What follows are compounds tested on PC-3 cells (assay: MTT cytotoxicity assay). Settings: PC-3, 24 h, MTT; read-out: IC50 ± SD.
Assay type: cell-based, human
Description: as §1, §2, §3
Work on Cc1ccc2cccc([O][Re])c2n1.[C-]#[O+].[C-]#[O+].[C-]#[O+].c1c[nH]cn1 [complex 5, [Re(CO)3(MeQ)Him]] yielded an IC50 of 11 ± 3 µM.

Same assay, conditions: PC-3, 48 h, MTT; read-out: IC50 ± SD
Cc1ccc2cccc([O][Re])c2n1.[C-]#[O+].[C-]#[O+].[C-]#[O+].c1c[nH]cn1 [complex 5, [Re(CO)3(MeQ)Him]] gave an IC50 of 28 ± 6 µM.

Same assay, conditions: PC-3, IC50 48 h versus 24 h
In the case of Cc1ccc2cccc([O][Re])c2n1.[C-]#[O+].[C-]#[O+].[C-]#[O+].c1c[nH]cn1 [complex 5, [Re(CO)3(MeQ)Him]], the “times lower effect after 48 h than after 24 h” value is reported as “about 2.5 times”.

What follows are compounds tested on MCF-7 cells (assay: MTT cytotoxicity assay). Settings: MCF-7, 24 h, MTT; read-out: IC50 ± SD.
Assay type: cell-based, human
Description: as §1, §2, §3
Cc1ccc2cccc([O][Re])c2n1.[C-]#[O+].[C-]#[O+].[C-]#[O+].c1c[nH]cn1 [complex 5, [Re(CO)3(MeQ)Him]] showed an IC50 of 47 ± 7 µM.

Same assay, conditions: MCF-7, 48 h, MTT; read-out: IC50 ± SD
Cc1ccc2cccc([O][Re])c2n1.[C-]#[O+].[C-]#[O+].[C-]#[O+].c1c[nH]cn1 [complex 5, [Re(CO)3(MeQ)Him]] was tested, and the IC50 was 43 ± 6 µM.

Each compound was assayed on P. aeruginosa ATCC27853 (assay: Broth microdilution MIC/MBC (ISO 20776-1)). Settings: P. aeruginosa ATCC27853, >99.99% reduction of growth.
Assay type: cell-based, Pseudomonas aeruginosa
Description: as §2
(§4) The in vitro antibacterial activity was determined according to ISO 20776-1.[88] Among the tested microorganisms were Gram-negative rods, E. coli ATCC25922 and P. aeruginosa ATCC27853, and Gram-positive cocci, S. aureus ATCC29213 and E. faecalis ATCC29212. The selected bacterial species represented the most common etiologic agents of human infections and are used for quality control of antimicrobial susceptibility testing.[89] The test procedure included the determination of MICs and MBCs of complexes and their free ligands. MIC and MBC determinations of ciprofloxacin, as the reference antibiotic, were also performed. All compounds were dissolved in DMSO to reach the maximum 512 mg L^−1 concentration. […] The assay consisted of preparing 2-fold dilutions of the substances in a liquid growth medium MH II and inoculating them with a standardized suspension of microorganisms at a McFarland density of 0.5 (≈10^8 CFU mL^−1). The culture plates were incubated at 35 °C for 24 h. The lowest concentration of the compound inhibiting visible bacterial growth was specified as MIC, and the concentration that reduced bacterial growth by >99.99% after counting live bacteria on the plates compared to the positive control was defined as MBC.
Work on Cc1ccc2cccc([O][Re])c2n1.[C-]#[O+].[C-]#[O+].[C-]#[O+].c1c[nH]cn1 [complex 5, [Re(CO)3(MeQ)Him]] yielded an MBC of 64 µg/mL.

Same assay, conditions: P. aeruginosa ATCC27853, MH II broth, 35 °C, 24 h
For Cc1ccc2cccc([O][Re])c2n1.[C-]#[O+].[C-]#[O+].[C-]#[O+].c1c[nH]cn1 [complex 5, [Re(CO)3(MeQ)Him]], the MIC was 16 µg/mL.

Same assay, conditions: P. aeruginosa, MIC/MBC compared with MeHQ
For Cc1ccc2cccc([O][Re])c2n1.[C-]#[O+].[C-]#[O+].[C-]#[O+].c1c[nH]cn1 [complex 5, [Re(CO)3(MeQ)Him]], the “fold better activity than the free MeHQ ligand” value was 4 fold.

What follows are compounds tested on E. coli ATCC25922 (assay: Broth microdilution MIC/MBC (ISO 20776-1)). Settings: E. coli ATCC25922, >99.99% reduction of growth.
Assay type: cell-based, Escherichia coli
Description: as §2, §4
With Cc1ccc2cccc([O][Re])c2n1.[C-]#[O+].[C-]#[O+].[C-]#[O+].c1c[nH]cn1 [complex 5, [Re(CO)3(MeQ)Him]] the MBC was 16/16 mg L^−1.

Same assay, conditions: E. coli ATCC25922, MH II broth, 35 °C, 24 h
In the case of Cc1ccc2cccc([O][Re])c2n1.[C-]#[O+].[C-]#[O+].[C-]#[O+].c1c[nH]cn1 [complex 5, [Re(CO)3(MeQ)Him]], the MIC is reported as 16/16 mg L^−1.

Same assay, conditions: E. coli, compared with MeHQ
In the case of Cc1ccc2cccc([O][Re])c2n1.[C-]#[O+].[C-]#[O+].[C-]#[O+].c1c[nH]cn1 [complex 5, [Re(CO)3(MeQ)Him]], the “fold decline of MBC compared to the free ligand” value is reported as 5 fold.

What follows are compounds tested on E. faecalis ATCC29212 (assay: Broth microdilution MIC/MBC (ISO 20776-1)). Settings: E. faecalis ATCC29212, >99.99% reduction of growth.
Assay type: cell-based, Enterococcus faecalis
Description: as §2, §4
Compound Cc1ccc2cccc([O][Re])c2n1.[C-]#[O+].[C-]#[O+].[C-]#[O+].c1c[nH]cn1 [complex 5, [Re(CO)3(MeQ)Him]] has an MBC greater than 512 µg/mL.

Same assay, conditions: E. faecalis ATCC29212, MH II broth, 35 °C, 24 h
In the case of Cc1ccc2cccc([O][Re])c2n1.[C-]#[O+].[C-]#[O+].[C-]#[O+].c1c[nH]cn1 [complex 5, [Re(CO)3(MeQ)Him]], the MIC is reported as 32 µg/mL.

Same assay, conditions: E. faecalis, compared with MeHQ
In the case of Cc1ccc2cccc([O][Re])c2n1.[C-]#[O+].[C-]#[O+].[C-]#[O+].c1c[nH]cn1 [complex 5, [Re(CO)3(MeQ)Him]], the “fold increase of MBC compared to the free ligand” value is reported as 4 fold.

The compounds below were run on MCF-10A cells (assay: MTT cytotoxicity assay). Settings: MCF-10A cell line culture medium.
Description: as §1, §2, §3
In the case of Cc1ccc2cccc([O][Re])c2n1.[C-]#[O+].[C-]#[O+].[C-]#[O+].c1c[nH]cn1 [complex 5, [Re(CO)3(MeQ)Him]], the “solubility in the cytotoxicity assay” value is reported as “precipitated at higher concentrations”.

Same assay, conditions: read-out: IC50 ± SD; MCF-10A (non-cancerous), 24 h, MTT; * precipitation of the complex
Cc1ccc2cccc([O][Re])c2n1.[C-]#[O+].[C-]#[O+].[C-]#[O+].c1c[nH]cn1 [complex 5, [Re(CO)3(MeQ)Him]] gave an IC50 of 50 ± 2 µM.

Same assay, conditions: read-out: IC50 ± SD; MCF-10A (non-cancerous), 48 h, MTT; * precipitation of the complex
Cc1ccc2cccc([O][Re])c2n1.[C-]#[O+].[C-]#[O+].[C-]#[O+].c1c[nH]cn1 [complex 5, [Re(CO)3(MeQ)Him]] showed an IC50 greater than 50 µM.

Each compound was assayed on S. aureus ATCC29213 (assay: Broth microdilution MIC/MBC (ISO 20776-1)). Settings: S. aureus ATCC29213, >99.99% reduction of growth.
Assay type: cell-based, Staphylococcus aureus
Description: as §2, §4
Cc1ccc2cccc([O][Re])c2n1.[C-]#[O+].[C-]#[O+].[C-]#[O+].c1c[nH]cn1 [complex 5, [Re(CO)3(MeQ)Him]] gave an MBC of 512 µg/mL.

Same assay, conditions: S. aureus ATCC29213, MH II broth, 35 °C, 24 h
With Cc1ccc2cccc([O][Re])c2n1.[C-]#[O+].[C-]#[O+].[C-]#[O+].c1c[nH]cn1 [complex 5, [Re(CO)3(MeQ)Him]] the MIC was 16 µg/mL.
